Test results published in ChEMBL document CHEMBL1201862, “PubChem BioAssay data set” (2004).
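Tested at 5 concentrations; 48 h exposure; 96-well plates; endpoints linearly interpolated, else capped at highest concentration. GI50 is the concentration that inhibits growth by half.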 Active and inactive are the calls of the source. Rule as the data show it: active = GI50 up to about 1.1 µM and inactive = higher.

Experiments:
Assay in all cases: growth of human tumour cells (NCI), 48 h
EKVX = system: EKVX
OVCAR-8 = system: OVCAR-8
COLO 205 = system: COLO 205
ACHN = system: ACHN
SW-620 = system: SW-620
HL-60 = system: HL-60
A549 = system: A549
SF-268 = system: SF-268
MOLT-4 = system: MOLT-4
HOP-92 = system: HOP-92
UACC-257 = system: UACC-257
M14 = system: M14
NCI-H460 = system: NCI-H460
KM12 = system: KM12
DU-145 = system: DU-145
NCI-H226 = system: NCI-H226
SF-295 = system: SF-295
SR = system: SR
SK-OV-3 = system: SK-OV-3
U-251 = system: U-251
SK-MEL-28 = system: SK-MEL-28
SK-MEL-2 = system: SK-MEL-2
MDA-N = system: MDA-N
MDA-MB-231 = system: MDA-MB-231
MDA-MB-435 = system: MDA-MB-435
OVCAR-3 = system: OVCAR-3
PC-3 = system: PC-3
SNB-19 = system: SNB-19
Malme-3M = system: Malme-3M
SN12C = system: SN12C
RPMI-8226 = system: RPMI-8226
SNB-75 = system: SNB-75
IGROV-1 = system: IGROV-1
T47D = system: T47D
LOX IMVI = system: LOX IMVI
CCRF-CEM = system: CCRF-CEM
UO-31 = system: UO-31
MCF7 = system: MCF7
OVCAR-5 = system: OVCAR-5
RXF 393 = system: RXF 393
SK-MEL-5 = system: SK-MEL-5
HCC 2998 = system: HCC 2998
A498 = system: A498
Hs-578T = system: Hs-578T
CAKI-1 = system: CAKI-1
HCT-15 = system: HCT-15
K562 = system: K562
HT-29 = system: HT-29
786-0 = system: 786-0
HOP-62 = system: HOP-62
SF-539 = system: SF-539
NCI-H522 = system: NCI-H522
TK-10 = system: TK-10
UACC-62 = system: UACC-62
BT-549 = system: BT-549
HCT-116 = system: HCT-116
NCI-H23 = system: NCI-H23
NCI/ADR-RES = system: NCI/ADR-RES
OVCAR-4 = system: OVCAR-4

Measured: GI50

COc1ccc(NC2Oc3cc4c(cc3C(c3cccc(OC)c3OC)C2C)OCO4)cc1 (centres undefined)
2.96 µM: HCT-15
inactive: EKVX 18.5 µM | OVCAR-8 5.13 µM | COLO 205 6.14 µM | ACHN 4.59 µM | SW-620 5.83 µM | HL-60 3.22 µM | A549 5.53 µM | SF-268 10.1 µM | MOLT-4 2.9 µM | HOP-92 3.32 µM | UACC-257 4.46 µM | M14 6.04 µM | NCI-H460 5.86 µM | KM12 6.68 µM | DU-145 4.16 µM | NCI-H226 6.82 µM | SF-295 3.73 µM | SR 2.04 µM | SK-OV-3 70 µM | U-251 4.01 µM | SK-MEL-28 16.3 µM | SK-MEL-2 5.3 µM | MDA-N 7.89 µM | MDA-MB-231 16.7 µM | MDA-MB-435 10 µM | OVCAR-3 5.35 µM | PC-3 3.62 µM | SNB-19 53.3 µM | Malme-3M 15.4 µM | SN12C 6.19 µM | RPMI-8226 11.4 µM | SNB-75 5.06 µM | IGROV-1 8.75 µM | T47D 5.08 µM | LOX IMVI 11.4 µM | CCRF-CEM 3.61 µM | UO-31 5.85 µM | MCF7 8.81 µM | OVCAR-5 19.2 µM | RXF 393 3.72 µM | SK-MEL-5 13.6 µM | HCC 2998 43.5 µM | A498 10.9 µM | Hs-578T 7.96 µM | CAKI-1 3.72 µM | K562 4.21 µM | HT-29 6.85 µM | 786-0 7.96 µM | HOP-62 32.9 µM | SF-539 17.7 µM | NCI-H522 6.24 µM | TK-10 6.4 µM | UACC-62 14.9 µM | BT-549 13.5 µM | HCT-116 3.83 µM | NCI-H23 11.9 µM

COC(=O)Cc1cc(O)c(C/C=C(\C)CC/C=C(\C)C(O)C(=O)C=C(C)C)cc1O (centres undefined)
inactive: EKVX 23.6 µM | OVCAR-8 23.2 µM | COLO 205 24.8 µM | ACHN 24.9 µM | SW-620 31.3 µM | HL-60 2.76 µM | A549 25.6 µM | SF-268 19.7 µM | NCI/ADR-RES 22.5 µM | OVCAR-4 40.4 µM | MOLT-4 14.5 µM | HOP-92 20.4 µM | UACC-257 30.7 µM | M14 26.3 µM | NCI-H460 20.6 µM | KM12 20.7 µM | DU-145 45.4 µM | NCI-H226 26.3 µM | SF-295 24.2 µM | SR 15.6 µM | SK-OV-3 29.7 µM | U-251 18.7 µM | SK-MEL-2 24.6 µM | MDA-N 35.5 µM | MDA-MB-231 34.7 µM | MDA-MB-435 20.6 µM | OVCAR-3 19.4 µM | PC-3 21.9 µM | SNB-19 32 µM | Malme-3M 17.3 µM | SN12C 22.4 µM | RPMI-8226 26.7 µM | SNB-75 18.2 µM | IGROV-1 23.3 µM | T47D 16.5 µM | CCRF-CEM 2.93 µM | UO-31 21.6 µM | MCF7 32.1 µM | OVCAR-5 33.7 µM | RXF 393 14.5 µM | SK-MEL-5 17.1 µM | Hs-578T 41 µM | K562 15.6 µM | HT-29 27.4 µM | 786-0 38.6 µM | HOP-62 19.6 µM | SF-539 20.3 µM | NCI-H522 21.1 µM | UACC-62 19.9 µM | BT-549 25.6 µM | HCT-116 17.3 µM | NCI-H23 39.4 µM
